These results are taken from PubChem BioAssay AID588480 (Broad Institute, 2011).

This experiment addresses Serine/threonine-protein kinase 33 (Homo sapiens) (UniProt Q9BYT3). Nature of the experiment: inhibition of purified STK33 phosphorylating MBP – biochemical, ADP-Glo luminescence, dry powder, set 2, dose response (AID 588480). The following applies: purified STK33, MBP phosphorylation; for activity change, negative = inhibition: at 10 µM (top of the series).

SMILES strings stand for the structures. Where “and” joins values, the source holds several entries; their conditions need not be identical. Equal entries are not always repeated. Results filed as inconclusive are left out. Calls of active or inactive are those of the source.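 How the source made its calls: active means compounds whose fitted half-maximal concentration stays within ten times the top tested dose in every test run; inconclusive means runs disagree, or a flat partial drop or poor fit; inactive means every run inactive, including flat curves and signal rises.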

Chain of Serine/threonine-protein kinase 33 (Homo sapiens) (Q9BYT3 whole entry, looked up): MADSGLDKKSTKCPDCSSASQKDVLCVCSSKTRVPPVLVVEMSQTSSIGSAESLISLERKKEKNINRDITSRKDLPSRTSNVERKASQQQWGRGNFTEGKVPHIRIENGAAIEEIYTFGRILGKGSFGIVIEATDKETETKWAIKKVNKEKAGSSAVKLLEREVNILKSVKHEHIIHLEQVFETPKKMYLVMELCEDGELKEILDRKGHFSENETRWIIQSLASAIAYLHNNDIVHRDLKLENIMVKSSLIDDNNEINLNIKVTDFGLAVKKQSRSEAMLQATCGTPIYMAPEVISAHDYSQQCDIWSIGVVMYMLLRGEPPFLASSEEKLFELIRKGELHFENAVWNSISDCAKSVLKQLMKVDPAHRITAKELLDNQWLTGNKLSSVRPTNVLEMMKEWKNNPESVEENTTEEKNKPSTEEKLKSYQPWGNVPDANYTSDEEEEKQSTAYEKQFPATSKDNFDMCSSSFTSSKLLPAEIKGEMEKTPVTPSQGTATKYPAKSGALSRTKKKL

For `COc1ccccc1N=C1NC(=O)/C(=C/c2cccc(Cl)c2)S1`, the “activity change, negative = inhibition” value was “inactive”.

For `O=C(Nc1ccccc1-c1nc2ccccc2[nH]c1=O)c1cccc(F)c1`, the AC50 was 2430 nM.

With `COc1cc(/C=C2\SC(=Nc3ccccc3OC)NC2=O)ccc1O`, the half-maximal activity concentration (AC50) is 250 nM and 321 nM.

On to `COc1ccccc1N=C1NC(=O)/C(=C/c2ccc(OC(F)(F)F)cc2)S1`, for which the “activity change, negative = inhibition” value is “inactive”.

Consider `COc1ccccc1N=C1NC(=O)/C(=C/c2ccccn2)S1`, for which the “activity change, negative = inhibition” value is “inactive”.

On to `COc1cc(/C=C2\SC(N)=NC2=O)ccc1O`, for which the AC50 was 466 nM.

For the molecule `O=C(Nc1ccccc1-c1nc2ccccc2[nH]c1=O)C1CCCCC1`, the “activity change, negative = inhibition” value was “inactive”.

`O=C(Nc1ccccc1-c1nc2ccccc2[nH]c1=O)c1cccs1`: the concentration at half-maximal activity (AC50) is 285 nM and 308 nM.

Take `O=c1[nH]c2ccccc2nc1-c1ccccc1NCc1cccs1`: the “activity change, negative = inhibition” value was “inactive”.

As for `O=C(Nc1ccccc1-c1nc2ccccc2[nH]c1=O)c1cc2ccccc2s1`, the AC50 is 8510 nM.

As to `COc1ccccc1N=C1NC(=O)/C(=C/c2cccc(F)c2)S1`, the “activity change, negative = inhibition” value is “inactive”.

Regarding `COc1ccccc1N=C1NC(=O)/C(=C/c2cc(C)on2)S1`, the “activity change, negative = inhibition” value was “inactive”.

With `O=C(Nc1ccccc1-c1nc2ccccc2[nH]c1=O)c1ccncc1`, the AC50 is 7690 nM.

In the case of `O=C1NC(=NCc2ccccc2)S/C1=C/c1ccc(O)cc1`, the AC50 is 245 nM.

Turning to `COc1ccccc1N=C1NC(=O)/C(=C/c2ccc(O)cc2)S1`, the AC50 was 911 nM.

With `Nc1ccccc1-c1nc2ccccc2[nH]c1=O`, the “activity change, negative = inhibition” value was “inactive”.

With `COc1ccccc1/C=C1\SC(=Nc2ccccc2OC)NC1=O`, the “activity change, negative = inhibition” value was “inactive”.

As for `COc1ccccc1N=C1NC(=O)/C(=C/c2ccc3c(c2)OCCO3)S1`, the AC50 was 1280 nM.

Regarding `COc1ccccc1N=C1NC(=O)/C(=C/c2ccc3c(c2)OCO3)S1`, the AC50 was 5410 nM.

As for `COc1cc(/C=C2\SC(=Nc3ccccc3OC)NC2=O)ccc1F`, the AC50 was 9910 nM.

With `O=C(Nc1ccccc1-c1nc2ccccc2[nH]c1=O)c1ccc(F)cc1`, the AC50 is 152 nM.

Turning to `COc1ccc(/C=C2\SC(=Nc3ccccc3OC)NC2=O)cc1`, the AC50 was 2250 nM.

Regarding `COc1ccccc1Nc1nc(O)c(/C=C2/C=c3ccccc3=N2)s1`, the “activity change, negative = inhibition” value was “inactive”.

For `COc1ccccc1N=C1NC(=O)/C(=C/c2cccn2C)S1`, the “activity change, negative = inhibition” value is “inactive”.

`COc1ccccc1N=C1NC(=O)/C(=C/C2CCCCC2)S1`: the “activity change, negative = inhibition” value was “inactive”.

In the case of `COc1ccccc1N=C1NC(=O)CS1`, the “activity change, negative = inhibition” value was “inactive”.

In the case of `COc1ccc(C(=O)Nc2ccccc2-c2nc3ccccc3[nH]c2=O)cc1`, the AC50 was 977 nM.

`O=C(Nc1ccccc1-c1nc2ccccc2[nH]c1=O)c1cccnc1`: the half-maximal activity concentration (AC50) is 582 nM.

As to `COc1ccccc1N=C1NC(=O)/C(=C/C(C)C)S1`, the “activity change, negative = inhibition” value is “inactive”.

On to `O=C(Nc1ccccc1-c1nc2ccccc2[nH]c1=O)c1ccccn1`, for which the AC50 is 76 nM.

Turning to `O=C(Nc1ccccc1-c1nc2ccccc2[nH]c1=O)c1cccc(Cl)c1`, the AC50 is 709 nM.
